From patent publication US9096532B2, “Pyrazole inhibitors of COX-2 and sEH” (The Regents of the University of California, priority 2010, dated 2015)

Legend:
[1] = target: T1, ovine COX-1 (Ovis aries, UniProt P05979); experiment: Cyclooxygenase inhibition assay (COX Fluorescent Inhibitor Screening Assay Kit), COX-1; format: biochemical
T1 construct: purchased Cayman Chemical 700100
T1 sequence (P05979 25-600): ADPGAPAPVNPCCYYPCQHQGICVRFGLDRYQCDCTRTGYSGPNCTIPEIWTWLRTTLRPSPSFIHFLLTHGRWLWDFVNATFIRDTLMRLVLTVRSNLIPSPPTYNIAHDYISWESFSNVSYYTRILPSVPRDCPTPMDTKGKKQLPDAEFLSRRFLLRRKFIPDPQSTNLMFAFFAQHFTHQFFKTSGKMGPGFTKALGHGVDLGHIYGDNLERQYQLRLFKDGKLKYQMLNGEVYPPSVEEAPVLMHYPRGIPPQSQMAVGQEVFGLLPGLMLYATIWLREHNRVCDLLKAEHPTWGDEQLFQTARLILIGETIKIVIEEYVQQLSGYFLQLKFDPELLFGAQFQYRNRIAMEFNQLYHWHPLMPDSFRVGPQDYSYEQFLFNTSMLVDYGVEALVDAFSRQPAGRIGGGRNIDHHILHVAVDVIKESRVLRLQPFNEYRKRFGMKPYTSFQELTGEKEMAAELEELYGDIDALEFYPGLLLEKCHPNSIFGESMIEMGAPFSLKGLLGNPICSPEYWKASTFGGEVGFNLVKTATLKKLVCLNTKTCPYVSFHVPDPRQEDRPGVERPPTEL
Method: (§1) Stock solutions of test compounds are dissolved in a minimum volume of DMSO. 10 μl of various concentrations of the test compound solutions, e.g., [I]final between 0.01 and 100 μM, are added to a series of supplied reaction buffer solutions (150 μl, 100 mM Tris-HCl, pH 8.0) with either COX-1 or COX-2 (10 μl) enzyme in the presence of Heme (10 μl) and a fluorometric substrate (10 μl). The reactions are initiated by quickly adding 10 μl of arachidonic acid solution and then incubating the system for two minutes at room temperature. […] The intensity of this fluorescence is proportional to the amount of resorufin, which is proportional to the amount of PGG2 present in the well during the incubation. Percent inhibition is calculated by comparison from the 100% initial activity sample value (no inhibitor).
as §1, with “compounds were” for “compounds are”, “μM, were” for “μM, are”, “reactions were” for “reactions are”, “then incubated” for “then incubating the system”, “inhibition was” for “inhibition is”

[2] = test system: HepG2 cells; experiment: HepG2 cell viability analysis (MTT); format: cell-based
Method: Cells were plated at 10,000 cell per well in 96-well plates and allowed to attach overnight under the growth conditions described above. […] These compounds were dissolved in 100% DMSO and diluted with EMEM to the desired concentration of 0.1 μM, 1.0 μM, 10 μM, 25 μM, and 50 μM, with a final DMSO concentration of 0.1% for all cell-based in vitro studies. All studies included DMSO as a solvent control. Cell viability was determined using the MTT Cell Viability Assay Kit from ATCC according to manufacturer's instructions. The 96-well plates were measure at 570 nm using SpectroMax 190 plate reader (Molecular Devices, Sunnyvale, Calif.). […] Each concentration was performed in triplicate per 96-well plate and EC50 data are presented as the mean±standard deviation from at least 3 separate experiments performed on separate days.

[3] = test system: VEGF-induced angiogenesis; experiment: In vivo angiogenesis assay (Matrigel plug); settings: C57BL/6 mice, n=6 per group, FIG. 15
Method: Male C57BL/6 mice were purchased from Charles River Lab. After acclimation for 1 wk in a standard animal facility, the animals were lightly anesthesized using 1-4% isoflurane in oxygen (2 L/min) and placed on a heated stage to maintain body temperature at 37° C. Growth-factor reduced Matrigel (0.5 mL, BD Biosciences, San Jose, Calif.) mixed with 100 ng mouse VEGF 164 (R&D Systems, Minneapolis, Minn.), 20 U heparin (APP Pharmaceuticals, Schaumburg, Ill.), with or without test compounds were subcutaneously injected into the mice at the abdominal area. Each mouse was injected with two gels (with/without test compounds) symmetrically in the abdomen. After 4-7 days, the animals were euthanized and dissected to recover the implanted Matrigel plugs. Hemoglobin contents inside the Matrigel implants were analyzed by Drabkin's reagent (Sigma-Aldrich, St. Louis, Mont.).

[4] = test system: Met-1 breast cancer; experiment: In vivo Met-1 tumor growth; settings: FVB mice, 0.1 mg/kg/day by mini-pump, FIG. 16
From the text: Cells derived from highly metastatic breast cancer Met-1 will be transplanted into the fat pads of FVB female mice. […] Over this period, animals will be checked 3 times per week with ultrasound to mark changes in tumor growth and size. Ultrasound contrast agent microbubbles will also be administered during each ultrasound session by IV injection to track changes in tumor vasculature (Invest Radiol 46, 215-224).

NS(=O)(=O)c1ccc(-n2nc(CCCNC(=O)Nc3ccc(C(F)(F)F)cc3)cc2-c2ccccc2)cc1 [Compound 21i, 4-(5-Phenyl-3-{3-[3-(4-trifluoromethyl-phenyl)-ureido]-propyl}-pyrazol-1-yl)-benzenesulfonamide]
IC50 [1]: > 100 µM
inhibition at 100 µM ([1]; read-out: COX-1 (% inhibition)): 22.7%
EC50 ([2]; Homo sapiens, HepG2, MTT after 24 hours of incubation): 4.5 ± 0.5 µM
Effect on HepG2 cell viability (killing cancer cells), in words ([2]; dose dependence, FIG. 9): more efficient than Celecoxib in combination or not with t-TUCB in killing the cancer cells
VEGF-induced angiogenesis, hemoglobin content inside the Matrigel, in words [3]: inhibits VEGF-induced angiogenesis
Primary tumor growth of Met-1 breast cancer, in words [4]: inhibits primary tumor growth
